SMILES strings stand for the structures. Where a chain is given by its changes, count along the chain named.

One experiment concerns the target G810R mutant RET kinase (Homo sapiens, UniProt P07949, G810R). Description: biochemical.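 Further: HTRF KinEASE-TK enzymatic assay with 1 nM recombinant RET G810R, 1 h at 22 °C, dual-wavelength ratiometric readout, 100% control without compound, 0% from pre-quenched reactions.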
The next experiment concerns the target RET kinase V804M (Homo sapiens, UniProt P07949, V804M). In words: RET Enzyme Assay (CisBio HTRF KinEASE-TK), V804M. The following applies: read-out: RET V804M Enz FRET IC50. Type of experiment: biochemical.
The target in experiment [1] is T1, HEK-293 cells expressing a G810S mutant RET Kif5b-RET fusion protein (Homo sapiens, UniProt P07949, G810S).
T1 construct: KIF5B (N-terminal portion incl. coiled-coil); expressed in transfected cells; host or cells: HEK-293
T1 sequence (P07949 713-1063 G810S limits assumed): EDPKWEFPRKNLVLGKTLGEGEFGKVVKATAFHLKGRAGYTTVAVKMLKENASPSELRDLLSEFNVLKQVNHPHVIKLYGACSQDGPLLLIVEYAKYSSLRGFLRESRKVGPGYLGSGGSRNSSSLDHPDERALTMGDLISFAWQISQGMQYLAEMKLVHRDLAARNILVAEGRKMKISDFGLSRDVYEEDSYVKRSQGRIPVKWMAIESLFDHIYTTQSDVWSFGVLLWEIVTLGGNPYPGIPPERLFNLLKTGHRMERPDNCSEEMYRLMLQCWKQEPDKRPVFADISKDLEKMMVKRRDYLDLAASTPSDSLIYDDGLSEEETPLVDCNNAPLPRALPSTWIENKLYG
Description: RET G810S Mutant Cell Assay (phospho-RET Tyr1062). Type of experiment: cell-based. The following applies: HEK-293 Kif5b-RET G810S, 1 hour incubation, phospho-RET normalized to GAPDH. The procedure: (§1) The cellular potency of compounds inhibiting RET kinase were determined in HEK-293 cells expressing a G810R or G810S mutant RET Kif5b-RET fusion protein. Briefly, HEK-293 cells expressing a G810R or G810S mutant RET Kif5b-RET fusion protein were plated at 50K cells/well in 96 well poly-D-Lysine coated plates the day prior to the assay. The cells were incubated for 1 hour with test compound in DMEM (Dulbecco's Modified Eagle Medium) at a final DMSO concentration of 0.5%. […] After 1 hour the media was removed, the cells were fixed with 3.8% formaldehyde for 20 min, washed with PBS, and permeabilized for 10 min with 100% methanol. The plates were then washed with PBS-0.05% Tween20, and blocked with LI-COR Blocking solution (LI-COR Catalog No. 927-40000) for 1 hour. Plates were washed with PBS-0.05% Tween20, then incubated with anti-phospho-RET (Tyr1062) (Santa Cruz Catalog No. sc-20252-R) antibody and anti-GAPDH (Millipore Catalog No. MAB374) antibody for 2 hours. The plates were washed with PBS-0.05% Tween20, and incubated with anti-rabbit 680 (Molecular Probes Catalog No. A21109) and anti-mouse 800 (LI-COR Catalog No. 926-32210) secondary antibodies for 1 hour. All antibodies were diluted in LI-COR Block containing 0.05% Tween. The plates were washed with PBS-0.05% Tween20,100 μL PBS was added to each well, and the plates were read on a LI-COR Aerius fluorescent plate reader. The phospho-RET signal was normalized to the GAPDH signal. […] The POC values are fit to a 4 parameter logistic curve. The IC50 value is the point where the curve crosses 50 POC.

For another experiment, the target named is RET kinase Wild Type (Homo sapiens, UniProt P07949). In words: biochemical.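 Further: HTRF kinase activity assay on RET enzyme, 1 h reaction at 22 °C, dual-wavelength readout as percent of control, DMSO-only wells as 100%, pre-quenched reactions as 0%.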
Experiment [2] addresses T2, HEK-293 cells expressing a Kif5b-RET fusion protein (Homo sapiens, UniProt P07949).
T2 construct: KIF5B (N-terminal portion incl. coiled-coil); expressed in transfected cells; host or cells: HEK-293; the other entry of the earlier key: KIF5B (P33176, Kinesin-1 heavy chain)
T2 sequence (P07949 713-1063 limits assumed): T1 sequence (P07949 713-1063 G810S limits assumed) with S98G
Description: RET Cell Assay (phospho-RET Tyr1062). The format is cell-based. The following applies: HEK-293 Kif5b-RET, 1 hour incubation, phospho-RET normalized to GAPDH; read-out: KIF5B-RET pTYR1062 Cell IC50. The procedure: as §1, with “a” for “a G810R or G810S mutant RET”, “PBS is” for “PBS was”, “values were” for “values are”

Another experiment addresses G810S mutant RET kinase (Homo sapiens, UniProt P07949, G810S). In words: biochemical.
In experiment [3] the target is T3, HEK-293 cells expressing a G810R mutant RET Kif5b-RET fusion protein (Homo sapiens, UniProt P07949, G810R).
T3 construct: KIF5B (N-terminal portion incl. coiled-coil); expressed in transfected cells; host or cells: HEK-293; the other entry of the earlier key: KIF5B (P33176, Kinesin-1 heavy chain)
T3 sequence (P07949 713-1063 G810R limits assumed): T1 sequence (P07949 713-1063 G810S limits assumed) with S98R
Description: RET G810R Mutant Cell Assay (phospho-RET Tyr1062). Type of experiment: cell-based. The settings on record: HEK-293 Kif5b-RET G810R, 1 hour incubation, phospho-RET normalized to GAPDH. How it is done:
as §1

Chain of RET kinase V804M (P07949 29-1114 V804M): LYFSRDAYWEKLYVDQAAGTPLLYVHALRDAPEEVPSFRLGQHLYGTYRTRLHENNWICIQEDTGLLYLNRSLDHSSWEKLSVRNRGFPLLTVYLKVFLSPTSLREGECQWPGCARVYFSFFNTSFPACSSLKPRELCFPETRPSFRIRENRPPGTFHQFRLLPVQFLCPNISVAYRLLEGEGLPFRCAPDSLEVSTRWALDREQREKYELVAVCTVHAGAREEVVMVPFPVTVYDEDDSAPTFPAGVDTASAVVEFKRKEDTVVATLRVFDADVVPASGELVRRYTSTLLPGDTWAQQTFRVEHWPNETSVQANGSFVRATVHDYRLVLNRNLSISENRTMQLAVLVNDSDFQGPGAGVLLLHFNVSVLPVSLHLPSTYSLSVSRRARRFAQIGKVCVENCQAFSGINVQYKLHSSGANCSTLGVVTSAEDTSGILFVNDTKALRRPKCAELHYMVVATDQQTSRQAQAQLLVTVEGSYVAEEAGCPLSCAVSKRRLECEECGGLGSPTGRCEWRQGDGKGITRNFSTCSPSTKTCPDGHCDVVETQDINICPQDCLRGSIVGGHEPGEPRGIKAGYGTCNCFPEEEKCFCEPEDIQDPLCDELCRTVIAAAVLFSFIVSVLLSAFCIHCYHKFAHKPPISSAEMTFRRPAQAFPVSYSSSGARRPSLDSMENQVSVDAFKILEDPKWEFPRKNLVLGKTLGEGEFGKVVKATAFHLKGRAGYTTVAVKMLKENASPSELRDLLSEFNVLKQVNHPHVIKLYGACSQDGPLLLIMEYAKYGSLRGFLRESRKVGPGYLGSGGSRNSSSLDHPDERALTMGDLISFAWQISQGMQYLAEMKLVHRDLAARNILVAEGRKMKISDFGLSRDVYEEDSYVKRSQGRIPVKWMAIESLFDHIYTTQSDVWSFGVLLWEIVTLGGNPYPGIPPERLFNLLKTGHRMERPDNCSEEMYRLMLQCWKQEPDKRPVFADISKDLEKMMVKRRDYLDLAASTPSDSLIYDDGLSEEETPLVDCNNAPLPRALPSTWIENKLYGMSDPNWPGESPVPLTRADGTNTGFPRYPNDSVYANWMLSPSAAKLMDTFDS
Chain of G810R mutant RET kinase (P07949 29-1114 G810R): as the sequence (P07949 29-1114 V804M) above, with M776V, G782R counted along it
Chain of RET kinase Wild Type (P07949 29-1114): as the sequence (P07949 29-1114 V804M) above, with M776V counted along it
Chain of G810S mutant RET kinase (P07949 29-1114 G810S): as the sequence (P07949 29-1114 V804M) above, with M776V, G782S counted along it
Description for G810R mutant RET kinase: The potency of compounds inhibiting several different RET kinase forms (Wild Type, V804M, G810R, & G810S) were determined using CisBio's HTRF® KinEASE™-TK assay technology. […] After a 1 hour incubation at 22° C., the extent of reaction was determined using a PerkinElmer EnVision multimode plate reader via HTRF dual wavelength detection, and the percent of control (POC) was calculated using a ratiometric emission factor. One hundred POC was determined using DMSO only samples (no compound present), and 0 POC was determined using pre-quenched control reactions.
The potency of a compound inhibiting G810R or G810S mutant RET kinase was determined using CisBio's HTRF® KinEASE™-TK assay technology. The assays contained G810R or G810S mutant RET produced at Array Biopharma, Inc. (1 nM enzyme). […] After a 1-h incubation at 22° C., the extent of reaction was determined using a PerkinElmer EnVision multimode plate reader via HTRF dual wavelength detection, and the percent of control (POC) was calculated using a ratiometric emission factor. One hundred POC was determined using no test compounds, and 0 POC was determined using pre-quenched control reactions.

In the case of `COC(=O)[C@H]1C[C@@H](n2c3c(c4c(N)ncnc42)-c2noc(C4CC4)c2C(O)CC3)C1` (stereo partly drawn) [Example 137, Methyl (1s,3s)-3-(11-amino-3-cyclopropyl-4-hydroxy-5,6-dihydroisoxazolo[4″,3″:6′,7′]cyclohepta[1′,2′:4,5]pyrrolo[2,3-d]pyrimidin-7(4H)-yl)cyclobutane-1-carboxylate 2,2,2-trifluoroacetate], the IC50 at G810R mutant RET kinase turned out to be 0.052 µM; on RET kinase V804M, 0.06 µM; in experiment [1] it was 0.28 µM; at RET kinase Wild Type, 0.038 µM; in experiment [2] it was 0.067 µM; on G810S mutant RET kinase, 0.155 µM.
In the case of `Nc1ncnc2c1c1c(n2[C@H]2C[C@H](CO)C2)CCC(O)c2c-1noc2C1CC1` (stereo partly drawn) [Example 135, 11-Amino-3-cyclopropyl-7-((1r,3r)-3-(hydroxymethyl)cyclobutyl)-4,5,6,7-tetrahydroisoxazolo[4″,3″:6′,7′]cyclohepta[1′,2′:4,5]pyrrolo[2,3-d]pyrimidin-4-ol 2,2,2-trifluoroacetate], the IC50 against G810R mutant RET kinase came to 0.15 µM; on RET kinase V804M it was 0.152 µM; in experiment [1] it was 0.103 µM; at RET kinase Wild Type, 0.045 µM; in experiment [2] it was 0.054 µM; against G810S mutant RET kinase, 0.229 µM.
Consider `CC(C)n1c2c(c3c(N)ncnc31)-c1c(Cl)c3ccc(C(=O)NC4CC4)cc3n1CCC2` [Example 102, 1-Amino-14-chloro-N-cyclopropyl-5-isopropyl-5,6,7,8-tetrahydropyrimido[5″,4″:4′,5′]pyrrolo[3′,2′:3,4]azepino[1,2-a]indole-11-carboxamide], for which the IC50 at G810R mutant RET kinase was found to be 0.76 µM; on RET kinase V804M, 0.483 µM; in experiment [1], 0.086 µM; at RET kinase Wild Type it was 0.128 µM; in experiment [2], 0.035 µM; at G810S mutant RET kinase, 0.183 µM.
On to `Nc1ncnc2c1c1c(n2C2CCC2)CCC(O)c2c-1noc2C1CC1` (stereo not drawn) [Example 144, 11-Amino-7-cyclobutyl-3-cyclopropyl-4,5,6,7-tetrahydroisoxazolo[4″,3″:6′,7]cyclohepta[1′,2′:4,5]pyrrolo[2,3-d]pyrimidin-4-ol 2,2,2-trifluoroacetate], for which the IC50 came to 0.061 µM against G810R mutant RET kinase; 0.057 µM at RET kinase V804M; 0.177 µM in experiment [1]; 0.024 µM on RET kinase Wild Type; 0.04 µM in experiment [2]; 0.101 µM at G810S mutant RET kinase.
`CNC(=O)c1ccc2cc3n(c2c1)C(=O)NCc1c-3c2c(N)ncnc2n1C(C)C` [Example 73, 1-Amino-5-isopropyl-N-methyl-8-oxo-5,6,7,8-tetrahydropyrimido[5″,4″:4′,5′]pyrrolo[2′,3′:5,6][1,3]diazepino[1,7-a]indole-11-carboxamide]: the IC50 on G810R mutant RET kinase worked out at 2.74 µM; in experiment [1], 16.7 µM; on RET kinase Wild Type, 0.531 µM; in experiment [2] it was 13.9 µM; against G810S mutant RET kinase it was 2.48 µM.
On the same counts, the results for `CC(C)n1c2c(c3c(N)ncnc31)-c1cc3ccc(C(=O)Nc4ccccn4)cc3n1CCC2` [Example 90, 1-amino-5-isopropyl-N-(pyridin-2-yl)-5,6,7,8-tetrahydropyrimido[5″,4″:4′,5′]pyrrolo[3′,2′: 3,4]azepino[1,2-a]indole-11-carboxamide] are 1.06 µM, 0.408 µM, 0.353 µM, 0.222 µM and 1.6 µM.
On to `CC(C)n1c2c(c3c(N)ncnc31)-c1noc(C3CC3)c1C(=O)N(Cc1ccccc1)C2` [Example 7, 11-amino-5-benzyl-3-cyclopropyl-7-isopropyl-6,7-dihydroisoxazolo[4,3-c]pyrimido[5′,4′:4,5]pyrrolo[3,2-e]azepin-4(5H)-one], for which the IC50 in experiment [3] is 0.66 µM; against G810R mutant RET kinase it was 0.171 µM; on RET kinase V804M, 0.34 µM; against RET kinase Wild Type it was 0.091 µM; in experiment [2], 0.135 µM; at G810S mutant RET kinase it was 0.356 µM.
In the case of `CC(C)n1c2c(c3c(N)ncnc31)-c1cc3ccc(C(=O)Nc4cnn(C)c4)cc3n1CCC2` [Example 93, 1-amino-5-isopropyl-N-(1-methyl-1H-pyrazol-4-yl)-5,6,7,8-tetrahydropyrimido[5″,4″:4′,5′]pyrrolo[3′,2′: 3,4]azepino[1,2-a]indole-11-carboxamide], the IC50 against G810R mutant RET kinase is 1.91 µM; in experiment [1], 1 µM; at RET kinase Wild Type, 1.26 µM; in experiment [2], 1 µM; at G810S mutant RET kinase it was 5.57 µM.
With `CC(C)n1c2c(c3c(N)ncnc31)-c1noc(C3CC3)c1C(=O)N(CC1CC1)C2` [Example 5, 11-amino-3-cyclopropyl-5-(cyclopropylmethyl)-7-isopropyl-6,7-dihydroisoxazolo[4,3-c]pyrimido[5′,4′:4,5]pyrrolo[3,2-e]azepin-4(5H)-one], the IC50 in experiment [3] turned out to be 0.459 µM; against G810R mutant RET kinase it was 0.157 µM; at RET kinase V804M it was 0.099 µM; against RET kinase Wild Type it was 0.017 µM; in experiment [2], 0.075 µM; at G810S mutant RET kinase it was 0.138 µM.

These data come from US11964988B2, “Fused heterocyclic compounds as RET kinase inhibitors” (ARRAY BIOPHARMA INC., priority 2018, dated 2024).
